According to patent US20250289789A1, “REVERSIBLE LYSINE COVALENT MODIFIERS OF CDK2 AND USES THEREOF” (Terremoto Biosciences, Inc., priority 2023, published 2025):
pIC50: −log10 of the molar value. Read-outs that look alike come from different tables or passages of the source.

Key:
Type in all cases: cell-based
[1] = target: T1, CDK1-NanoLuc fusion with CCNB1 in 293T or 293 cells (Homo sapiens, UniProt P06493); assay: NanoBRET Target Engagement (TE) Intracellular Kinase Assay, CDK1/CCNB1; details: NanoBRET TE intracellular kinase assay, 2-hour incubation, read-out: NanoBRET-CDK1/B1 IC50
T1 construct: host or cells: 293T (ATCC CRL-3216) or 293 (ATCC CRL-1573)
T1 sequence (P06493 whole entry, the tested form may be a part): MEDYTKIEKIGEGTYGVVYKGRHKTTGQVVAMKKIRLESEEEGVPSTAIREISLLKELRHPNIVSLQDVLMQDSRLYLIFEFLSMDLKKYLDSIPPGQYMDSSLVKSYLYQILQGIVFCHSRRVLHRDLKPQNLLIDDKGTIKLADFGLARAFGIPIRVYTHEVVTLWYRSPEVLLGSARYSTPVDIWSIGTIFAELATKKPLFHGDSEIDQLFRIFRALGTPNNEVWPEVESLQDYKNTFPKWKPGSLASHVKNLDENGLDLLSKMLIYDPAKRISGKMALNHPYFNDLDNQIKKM
T1 sequence (P14635 whole entry partner, the tested form may be a part): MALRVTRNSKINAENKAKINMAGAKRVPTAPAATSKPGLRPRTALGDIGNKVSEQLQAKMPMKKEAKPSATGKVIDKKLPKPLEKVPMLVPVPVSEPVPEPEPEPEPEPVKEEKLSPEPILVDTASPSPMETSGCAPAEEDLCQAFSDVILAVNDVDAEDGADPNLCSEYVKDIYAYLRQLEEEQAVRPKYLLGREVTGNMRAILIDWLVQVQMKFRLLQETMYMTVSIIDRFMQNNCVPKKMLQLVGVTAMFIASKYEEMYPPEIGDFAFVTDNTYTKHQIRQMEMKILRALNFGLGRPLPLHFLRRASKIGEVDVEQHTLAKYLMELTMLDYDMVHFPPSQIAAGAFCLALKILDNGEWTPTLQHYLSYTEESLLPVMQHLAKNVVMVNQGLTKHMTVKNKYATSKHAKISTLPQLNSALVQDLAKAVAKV
Outline: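 IC50 derived by four-parameter logistic fit of DMSO-normalized acceptor/donor (610/450 nm) BRET ratio. Compound and Tracer K-10 were applied together for 2 h at 37° C to 293 or 293T cells transfected 24 h earlier with CDK1-NanoLuc fusion and cyclin B1.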

[2] = target: T2, CDK2-NanoLuc fusion with CCNE1 in 293T or 293 cells (Homo sapiens, UniProt P24941); assay: NanoBRET Target Engagement (TE) Intracellular Kinase Assay, CDK2/CCNE1; details: 2-hour incubation
T2 construct: host or cells: 293T (ATCC CRL-3216) or 293 (ATCC CRL-1573)

[3] = target: T3, CDK4-NanoLuc fusion with CCND1 in 293T or 293 cells (Homo sapiens, UniProt P11802); assay: NanoBRET Target Engagement (TE) Intracellular Kinase Assay, CDK4/CCND1; details: NanoBRET TE intracellular kinase assay, 2-hour incubation, read-out: NanoBRET-CDK4/D1 IC50
T3 construct: host or cells: 293T (ATCC CRL-3216) or 293 (ATCC CRL-1573)
T3 sequence (P11802 whole entry, the tested form may be a part): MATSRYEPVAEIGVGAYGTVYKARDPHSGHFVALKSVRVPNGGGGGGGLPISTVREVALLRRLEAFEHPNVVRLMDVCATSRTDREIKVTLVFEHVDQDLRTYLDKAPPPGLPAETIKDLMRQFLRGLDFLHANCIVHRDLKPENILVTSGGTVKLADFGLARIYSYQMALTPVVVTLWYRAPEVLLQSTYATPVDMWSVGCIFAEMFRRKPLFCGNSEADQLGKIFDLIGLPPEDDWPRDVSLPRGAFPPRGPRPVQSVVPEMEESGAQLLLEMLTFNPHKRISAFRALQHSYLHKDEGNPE
T3 sequence (P24385 whole entry partner, the tested form may be a part): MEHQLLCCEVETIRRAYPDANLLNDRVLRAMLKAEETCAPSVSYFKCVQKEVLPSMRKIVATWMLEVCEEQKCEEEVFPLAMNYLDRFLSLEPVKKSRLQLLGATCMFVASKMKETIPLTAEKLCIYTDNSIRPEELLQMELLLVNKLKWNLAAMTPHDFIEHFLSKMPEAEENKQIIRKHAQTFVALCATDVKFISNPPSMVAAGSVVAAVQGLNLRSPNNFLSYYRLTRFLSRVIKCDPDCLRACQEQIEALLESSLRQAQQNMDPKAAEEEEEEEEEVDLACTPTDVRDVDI

[4] = tested on: Phospho-Rb Ser807/811 in OVCAR3 cells; assay: OVCAR3 Phospho-Rb Ser807/811 HTRF assay; details: OVCAR3 cells, Phospho-Rb Ser807/811 HTRF, 1 hour incubation, read-out: pRb-OVCAR3 IC50
Method: Cells were trypsinized and resuspended in 1 mM hydroxyurea (Sigma; H8627), 90% RPMI and 10% fetal bovine serum. […] Dose response curve normalized to DMSO control was plotted using four-parameter logistic model for IC50 calculation.

[5] = NanoBRET TE intracellular kinase assay, read-out: NanoBRET-CDK2/E1 IC50

Compound | pIC50 [1] | pIC50 [2, 5] | pIC50 [3] | pIC50 ([4]; Homo sapiens, OVCAR-3, 1 h) | pIC50 [4] | pIC50 ([2]; NanoBRET-CDK2/E1 IC50, NanoBRET TE intracellular kinase assay) | pIC50 ([4]; Homo sapiens, OVCAR-3)
COc1cc(O)c(C=O)c(OCC(=O)Nc2cc([C@H]3CC[C@@H](OC(=O)N4C5COCC4C5)C3)[nH]n2)c1 [Compound 231, (1R,3S)-3-{5-[2-(2-formyl-3-hydroxy-5-methoxyphenoxy)acetamido]-2H-pyrazol-3-yl}cyclopentyl 3-oxa-6-azabicyclo[3.1.1]heptane-6-carboxylate] | > 8.58 | 8.49 | 5.84 | 7.73 |  |  | 
COc1cc(O)c(C=O)c(OCC(=O)Nc2cc([C@H]3CC[C@@H](OC(=O)N4CCCC4)C3)[nH]n2)c1 [Compound 255, (1R,3S)-3-(3-(2-(2-formyl-3-hydroxy-5-methoxyphenoxy)acetamido)-1H-pyrazol-5-yl)cyclopentyl pyrrolidine-1-carboxylate] | 7.96 | 8.65 | 5.37 | 7.48 |  |  | 
C#Cc1cc(O)c(C=O)c(OCC(=O)Nc2cc([C@H]3CC[C@@H](OC(=O)NC(C)C)C3)[nH]n2)c1 [Compound 99, (1R,3S)-3-(3-(2-(5-ethynyl-2-formyl-3-hydroxyphenoxy)acetamido)-1H-pyrazol-5-yl)cyclopentyl isopropylcarbamate] | 7.67 | 8.50 | < 5.00 | 6.59 |  |  | 
CC(C)NC(=O)O[C@@H]1CC[C@H](c2cc(NC(=O)COc3cc(F)cc(O)c3C=O)n[nH]2)C1 [Compound 248] | 6.97 | 7.69 | 6.24 | 5.71 |  |  | 
CCn1nc(-c2cccc(O)c2C=O)cc1C(=O)Nc1cc([C@H]2CC[C@@H](OC(=O)NC(C)C)C2)[nH]n1 [Compound 60, (1R,3S)-3-{5-[2-ethyl-5-(2-formyl-3-hydroxyphenyl)pyrazole-3-amido]-2H-pyrazol-3-yl}cyclopentyl N-isopropylcarbamate; trifluoroacetic acid] | 7.82 | 8.19 | 5.44 | 6.64 |  |  | 
COc1cc(O)c(C=O)c(OCc2cc(C(=O)Nc3cc([C@H]4CC[C@@H](OC(=O)NC(C)C)C4)[nH]n3)n(C)n2)c1 [Compound 77] | 8.05 | 8.52 | 7.35 | 7.33 |  |  | 
CC(C)NC(=O)O[C@@H]1CC[C@H](c2cc(NC(=O)c3cc(C(=O)Nc4ccccc4C=O)nn3C)n[nH]2)C1 [Compound 21, (1R,3S)-3-(5-{5-[(2-formylphenyl)carbamoyl]-2-methylpyrazole-3-amido}-2H-pyrazol-3-yl)cyclopentyl N-isopropylcarbamate; trifluoroacetic acid] | 6.54 | 8.26 | 5.41 | 5.67 |  |  | 
COc1cc(O)c(C=O)c(OCC(=O)Nc2cc([C@H]3CC[C@@H](OC(=O)NN4CCCC4)C3)[nH]n2)c1 [Compound 217] | 7.35 | 8.53 | < 5.00 | 7.22 |  |  | 
Cc1cc(O)c(C=O)c(OCC(=O)Nc2cc([C@H]3CC[C@@H](OC(=O)N4C5COCC4C5)C3)[nH]n2)c1 [Compound 199] | 7.70 | 8.42 | 5.19 | 7.23 |  |  | 
COc1cc(O)c(C=O)c(OCC(=O)Nc2cc([C@H]3CC[C@@H](OC(=O)N4CCCC4(C)C)C3)[nH]n2)c1 [Compound 243] | 8.62 | 8.65 | 6.32 | 7.75 |  |  | 
COc1cc(O)c(C=O)c(OCC(=O)Nc2cc([C@H]3CC[C@@H](OC(=O)N[C@H]4C[C@H]4F)C3)[nH]n2)c1 [Compound 132] | 7.97 | 8.47 | 5.53 | 7.66 |  |  | 
Cc1cc(O)c(C=O)c(OCC(=O)Nc2cc([C@H]3CC[C@@H](OC(=O)NC(C)C)C3)[nH]n2)c1 [Compound 57, (1R,3S)-3-(3-(2-(2-formyl-3-hydroxy-5-methylphenoxy)acetamido)-1H-pyrazol-5-yl)cyclopentyl isopropylcarbamate] | 7.66 | 8.51 | < 5.02 | 6.96 |  |  | 
Cc1sc(-c2cccc(O)c2C=O)nc1C(=O)Nc1cc([C@H]2CC[C@@H](OC(=O)NC(C)C)C2)[nH]n1 [Compound 65, (1R,3S)-3-(3-(2-(2-formyl-3-hydroxyphenyl)-5-methylthiazole-4-carboxamido)-1H-pyrazol-5-yl)cyclopentyl isopropylcarbamate] | 7.55 | 8.07 | 5.33 | 6.50 |  |  | 
COCc1cc(O)c(C=O)c(OCC(=O)Nc2cc([C@H]3CC[C@@H](OC(=O)NC(C)C)C3)[nH]n2)c1 [Compound 72, (1R,3S)-3-(3-(2-(2-formyl-3-hydroxy-5-(methoxymethyl)phenoxy)acetamido)-1H-pyrazol-5-yl)cyclopentyl isopropylcarbamate] | 6.36 | 8.08 | < 5.00 | 6.32 |  |  | 
CC(C)NC(=O)O[C@@H]1CC[C@H](c2cc(NC(=O)COc3cc(Cl)cc(O)c3C=O)n[nH]2)C1 [Compound 73, (1R,3S)-3-(3-(2-(5-chloro-2-formyl-3-hydroxyphenoxy)acetamido)-1H-pyrazol-5-yl)cyclopentyl isopropylcarbamate] | 7.21 | 7.57 | < 5.00 | 6.52 |  |  | 
Cc1nc(-c2cccc(O)c2C=O)sc1C(=O)Nc1cc([C@H]2CC[C@@H](OC(=O)NC(C)C)C2)[nH]n1 [Compound 53, (1R,3S)-3-(3-(2-(2-formyl-3-hydroxyphenyl)-4-methylthiazole-5-carboxamido)-1H-pyrazol-5-yl)cyclopentyl isopropylcarbamate] | 7.66 | 8.03 | 5.44 | 6.44 |  |  | 
CC(C)(C)NC(=O)O[C@@H]1CC[C@H](c2cc(NC(=O)COc3cccc(O)c3C=O)n[nH]2)C1 [Compound 84, (1R,3S)-3-(3-(2-(2-formyl-3-hydroxyphenoxy)acetamido)-1H-pyrazol-5-yl)cyclopentyl tert-butylcarbamate] | 7.82 | 8.23 | 5.28 | 6.64 |  |  | 
COc1cc(O)c(C=O)c(OCC(=O)Nc2cc([C@H]3C[C@@H](OC(=O)NC(C)C)C3)[nH]n2)c1 [Compound 223] | 7.88 | 8.38 | < 5.00 |  | 7.18 |  | 
COc1cc(O)c(C=O)c(OCC(=O)Nc2cc([C@H]3CC[C@@H](OC(=O)N4CC[C@H](OC)C4)C3)[nH]n2)c1 [Compound 242] | 7.88 | 8.30 | < 5.00 | 7.17 |  |  | 
C[C@H]1CCCN1C(=O)O[C@@H]1CC[C@H](c2cc(NC(=O)COc3cccc(O)c3C=O)n[nH]2)C1 [Compound 102, (S)-((1R,3S)-3-(3-(2-(2-formyl-3-hydroxyphenoxy)acetamido)-1H-pyrazol-5-yl)cyclopentyl) 2-methylpyrrolidine-1-carboxylate; trifluoroacetic acid] | 8.08 |  | 5.54 |  |  | 8.38 | 7.11
COCCNC(=O)O[C@@H]1CC[C@H](c2cc(NC(=O)COc3cc(OC)cc(O)c3C=O)n[nH]2)C1 [Compound 213] | 7.52 | 8.33 | < 5.00 | 7.45 |  |  | 
COc1cc(O)c(C=O)c(OCC(=O)Nc2cc([C@H]3CC[C@@H](OC(=O)N4CCC[C@@H]4C)C3)[nH]n2)c1 [Compound 245] | 8.40 | 8.51 | 6.14 | 7.60 |  |  | 
CC(C)NC(=O)O[C@@H]1CC[C@H](c2cc(NC(=O)COc3cc(OC(C)C)cc(O)c3C=O)n[nH]2)C1 [Compound 250] | 7.43 | 8.73 | 5.03 | 7.18 |  |  | 
COc1cc(O)c(C=O)c(OCC(=O)Nc2cc([C@@H]3CC[C@H](OC(=O)NC(C)C)C3)[nH]n2)c1 [Compound 247] | 7.71 | 7.80 | 5.14 | 7.00 |  |  | 
CC(C)NC(=O)O[C@@H]1CC[C@H](c2cc(NC(=O)COCc3cccc(O)c3C=O)n[nH]2)C1 [Compound 36, (1R,3S)-3-(5-{2-[(2-formyl-3-hydroxyphenyl)methoxy]acetamido}-2H-pyrazol-3-yl)cyclopentyl N-isopropylcarbamate; trifluoroacetic acid] | 7.09 | 8.09 | 5.72 | 6.15 |  |  | 
CC(C)NC(=O)O[C@@H]1CC[C@H](c2cc(NC(=O)C3C[C@H]3c3cccc(O)c3C=O)n[nH]2)C1 (stereo in doubt) [Compound 9, (1R,3S)-3-{5-[(1R,2R)-2-(2-formyl-3-hydroxyphenyl)cyclopropaneamido]-2H-pyrazol-3-yl}cyclopentyl N-isopropylcarbamate] | 7.30 | 7.53 | 5.33 | 6.35 |  |  | 
